Results on two compounds are retold here after patent publication US8183285B2, “Therapeutic agent for irritable bowel syndrome and methods thereof” (Takeda Pharmaceutical Company Limited, priority 2006, dated 2012).

Experiment [1] concerns restraint stress-induced defecation. As to the kind of experiment: Restraint stress-induced defecation test. Type of experiment: in vivo. Conditions: male Wistar rats. As to the method:
For the experiment, 10 week-old male Wistar rats (SLC) were used. Compound A (0.3, 3, 10 and 30 mg/kg) or a vehicle (control group, 0.5% methylcellulose) was administered orally with a dose of 4 ml/kg, and after 15 minutes, a restraint stress was loaded. Fecal pellets were retrieved 2 hours after the beginning of the restraint stress loading, and the number of feces was counted. In addition, as for normal group, rats were left in their individual cages without any after administration of vehicle, and the number of feces for 2 hours was counted. Experiment was carried out according to Test Example 2, wherein melatonin (10 and 30 mg/kg) instead of compound A was administered orally.

For the next experiment, the system named is normal defecation. As to the kind of experiment: Normal defecation test. The format is in vivo. Conditions: male Wistar rats, oral 30 mg/kg; FIG. 3. As to the method:
Further, a study on normal defecation was also conducted. Until the day before the experiment, two rats were kept in a cage and accustomed to the measuring condition. On the day of experiment, compound A or vehicle (control group, 0.5% methylcellulose) was administered orally with a dose of 4 ml/kg, and after 15 minutes, the measurement of defecation was commenced. The number of feces was counted two hours after the initiation of measurement, and the result was expressed by the number of feces per two rats.

Experiment [2] relates to melatonin receptor MT1/MT2. To be noted: disclosed in U.S. Pat. No. 6,034,239; cited from earlier work.
In a further experiment the test system is viscerosensory response. As to the kind of experiment: Viscerosensory response test: abdominal oblique muscle contractions under colonic distension stimulus after 1% acetic acid instillation. Type of experiment: in vivo. To be noted: male SD rats, oral 0.3, 3 and 30 mg/kg, 30 minutes before second colonic distension stimulus; FIG. 1. As to the method:
For the experiment, 7 to 8 week-old male SD rats (CREA Japan, Inc.) were used. Under ether anesthesia, the rats were sutured with a force transducer (F12-IS-SL, Star Medical Inc.) on the abdominal oblique muscle, and used for the experiment after waiting at least one day or more postoperatively for recovery of the animals. After fasting for 18 hours, 1% acetic acid was instilled into the colon to produce a hypersensitive condition. One hour after the instillation of acetic acid, a balloon was inserted into the colon, fixed, and colonic distension stimulus was loaded for 10 minutes by inflating the balloon. The colonic distension stimulus was loaded two times before and after administration of compound A, and the observed contraction number of the abdominal oblique muscle was counted. The result was expressed as inhibition percent. Determination of the abdominal muscle contraction was conducted with the naked eye and waveform of force transducer. Compound A was suspended in a 0.5% methylcellulose, and administered orally with a volume of 4 mL/kg 30 minutes before the second colonic distension stimulus (0.3, 3 and 30 mg/kg).

Experiment [3] relates to abdominal symptoms of irritable bowel syndrome. Conditions: female patients suffering from irritable bowel syndrome; cited from earlier work.
For experiment [4], the system named is partial restraint stress-induced defecation. To be noted: experimental model for irritable bowel syndrome; cited from earlier work.

In the case of `CCC(=O)NCC[C@@H]1CCc2ccc3c(c21)CCO3` [compound A, (S)—N-[2-(1,6,7,8-tetrahydro-2H-indeno[5,4-b]furan-8-yl)ethyl]propionamide], in experiment [1] (oral 30 mg/kg, 15 minutes before restraint stress, FIG. 2), the “inhibition of restraint stress-induced defecation (number of feces for 2 hours)” value is on record as “inhibited significantly”. Besides, the “inhibition of normal defecation (number of feces per two rats, 2 hours)” value in the experiment on normal defecation is “not inhibited”. The “melatonin receptor MT1/MT2 agonistic action” value in experiment [2] was “has a melatonin receptor MT1/MT2 agonistic action”. Also, the “inhibition of viscerosensory response (contraction number of abdominal oblique muscle, inhibition percent)” value with viscerosensory response is reported as “dose-dependent significant inhibition action”.

On to `COc1ccc2[nH]cc(CCNC(C)=O)c2c1` [melatonin], for which, in experiment [3], the “improvement of abdominal symptoms (abdominal pain, abdominal bloating, sense of urgency for defecation)” value is reported as “improves significantly”. In addition, in experiment [1] (oral 10 and 30 mg/kg, FIG. 4), the “inhibition of restraint stress-induced defecation (number of feces for 2 hours)” value is reported as “did not inhibit”. The “inhibitory action on partial restraint stress-induced defecation” value in experiment [4] is recorded as “shows an inhibitory action”.
